# Columns and labels:
# [1] = target: T1, KRAS G12C (Homo sapiens, UniProt P01116, G12C); experiment: KRAS_G12C cellular pERK HTRF assay; assay type: cell-based; design: host or cells: MIA PaCa-2; settings: MIA PaCa-2 (KRAS G12C), 4 hours; read-out: G12C_pERK (KRAS_G12C pERK assay IC50)
# Experimental: MIA PaCa-2 (KRAS G12C; ATCC® CRL-1420), A427 (KRAS G12D; ATCC® HTB53), HPAF-II (KRAS G12D; ATCC® CRL-1997) and NCI-H838 (KRAS WT; ATCC® CRL-5844) cells are purchased from ATCC and maintained in RPMI 1640 media supplemented with 10% FBS (Gibco/Life Technologies). The cells are plated at 5000 cells per well (8 uL) into Greiner 384-well low volume, flat-bottom, tissue culture treated white plates and incubated overnight at 37° C., 5% CO2. The next morning, test compound stock solutions are diluted in media at 3x the final concentration, and 4 uL are added to the cells. The plate is mixed by gentle rotation for 30 seconds (250 rpm) at room temperature. The cells are incubated with the KRAS G12C and G12D compounds for 4 hours or 2 hours respectively at 37° C., 5% CO2.
# 4 uL of 4x lysis buffer with blocking reagent (1:25) (Cisbio) are added to each well and plates are rotated gently (300 rpm) for 30 minutes at room temperature. 4 uL per well of Cisbio anti Phospho-ERK 1/2 d2 is mixed with anti Phospho-ERK 1/2 Cryptate (1:1) are added to each well, mixed by rotation and incubated overnight in the dark at room temperature. Plates are read on the Pherastar plate reader at 665 nm and 620 nm wavelengths. IC50 determination is performed by fitting the curve of inhibitor percent inhibition versus the log of the inhibitor concentration using the GraphPad Prism 7 software.
# [2] = target: T1, KRAS G12C; experiment: KRAS_G12C GDP-GTP exchange assay (bodipy-GDP/GppNHp, SOS1); assay type: biochemical; settings: bodipy-loaded KRAS G12C, 2 hours pre-incubation, 2 hours exchange; read-out: G12C_exchange (KRAS_G12C exchange assay IC50)
# Experimental: The inhibitor potency of the exemplified compounds was determined in a fluorescence based guanine nucleotide exchange assay, which measures the exchange of bodipy-GDP (fluorescently labeled GDP) for GppNHp (Non-hydrolyzable GTP analog) to generate the active state of KRAS in the presence of SOS1 (guanine nucleotide exchange factor). Inhibitors were serially diluted in DMSO and a volume of 0.1 μL was transferred to the wells of a black low volume 384-well plate. 5 μL/well volume of bodipy-loaded KRAS G12C diluted to 5 nM in assay buffer (25 mM Hepes pH 7.5, 50 mM NaCl, 10 mM MgCl2 and 0.01% Brij-35) was added to the plate and pre-incubated with inhibitor for 2 hours at ambient temperature. Appropriate controls (enzyme with no inhibitor or with a G12C inhibitor (AMG-510)) were included on the plate. The exchange was initiated by the addition of a 5 μL/well volume containing 1 mM GppNHp and 300 nM SOS1 in assay buffer. The 10 μL/well reaction concentration of the bodipy-loaded KRAS G12C, GppNHp, and SOS1 were 2.5 nM, 500 uM, and 150 nM, respectively. The reaction plates were incubated at ambient temperature for 2 hours, a time estimated for complete GDP-GTP exchange in the absence of inhibitor. Internal compounds with confirmed binding were used as positive controls in the assay plates. Fluorescence intensities were measured on a PheraStar plate reader instrument (BMG Labtech) with excitation at 485 nm and emission at 520 nm.
# Either GraphPad prism or XLfit was used to analyze the data. The IC50 values were derived by fitting the data to a four parameter logistic equation producing a sigmoidal dose-response curve with a variable Hill coefficient. Prism equation: Y=Bottom+(Top−Bottom)/(1+10^((Log IC50−X)*Hill slope)); XLfit equation: Y=(A+((B−A)/(1+((X/C)^D)))) where X is the logarithm of inhibitor concentration and Y is the response.
# T1 sequence (P01116 1-188 isoform P01116-2 G12C): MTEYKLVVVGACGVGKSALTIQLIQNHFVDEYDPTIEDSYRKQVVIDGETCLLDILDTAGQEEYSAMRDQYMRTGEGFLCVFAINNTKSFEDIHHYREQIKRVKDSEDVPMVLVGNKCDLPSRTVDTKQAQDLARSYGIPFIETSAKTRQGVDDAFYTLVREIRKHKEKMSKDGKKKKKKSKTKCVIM
Structure (SMILES),IC50 [1] [nM],IC50 [2] [nM]
"C=C(F)C(=O)N1CC[C@H](n2nnc3c(N4CC(N(C)CC)C4)nc4c(F)c(-c5cccc6cccc(C#N)c56)ncc4c32)C[C@H]1CC#N [Example 14, 8-(1-((2S,4S)-2-(cyanomethyl)-1-(2-fluoroacryloyl)piperidin-4-yl)-4-(3-(ethyl(methyl)amino)azetidin-1-yl)-6-fluoro-1H-[1,2,3]triazolo[4,5-c][1,6]naphthyridin-7-yl)-1-naphthonitrile]",100 to 1000,≤ 100
"CCN(C)C1CN(c2nc3c(F)c(-c4ccc(F)c5cccnc45)ncc3c3c2nnn3[C@H]2CCN(C(=O)/C=C/CF)[C@H](CC#N)C2)C1 [Example 12, 2-((2S,4S)-4-(4-(3-(ethyl(methyl)amino)azetidin-1-yl)-6-fluoro-7-(5-fluoroquinolin-8-yl)-1H-[1,2,3]triazolo[4,5-c][1,6]naphthyridin-1-yl)-1-((E)-4-fluorobut-2-enoyl)piperidin-2-yl)acetonitrile]",100 to 1000,≤ 100
"C=C(F)C(=O)N1CC[C@H](n2nnc3c(N4CC(N(C)CC)C4)nc4c(F)c(-c5n[nH]c6cc(C)c(C)cc56)ncc4c32)C[C@H]1CC#N [Example 13, 2-((2S,4S)-4-(7-(5,6-dimethyl-1H-indazol-3-yl)-4-(3-(ethyl(methyl)amino)azetidin-1-yl)-6-fluoro-1H-[1,2,3]triazolo[4,5-c][1,6]naphthyridin-1-yl)-1-(2-fluoroacryloyl)piperidin-2-yl)acetonitrile]",,≤ 100
"CCN(C)C1CN(c2nc3c(F)c(-c4cccc5cccc(C#N)c45)ncc3c3c2nnn3[C@H]2CCN(C(=O)/C=C/CF)[C@H](CC#N)C2)C1 [Example 15, 8-(1-((2S,4S)-2-(cyanomethyl)-1-((E)-4-fluorobut-2-enoyl)piperidin-4-yl)-4-(3-(ethyl(methyl)amino)azetidin-1-yl)-6-fluoro-1H-[1,2,3]triazolo[4,5-c][1,6]naphthyridin-7-yl)-1-naphthonitrile]",≤ 100,≤ 100
